# Where “and” joins values, the source holds several entries; their conditions need not be identical. Identical values can stand only once. Like-named read-outs stand apart in the source and are kept apart here.
# Legend:
# [1] = test system: SARS-CoV-2 UT-NCD1757-1N/ο BA.2.75; assay: microbe, parasite or virus in culture; format: cell-based
# [2] = test system: SARS-CoV-2 TKYTS14631/ο BA.5; assay: microbe, parasite or virus in culture; format: cell-based
# [3] = test system: SARS-CoV-2^WK521 in A549-ACE2-TMPRSS2 cells; assay: Antiviral assay, A549-ACE2-TMPRSS2 cells, WK521; format: cell-based
# [4] = Pharmacokinetic study in PXB-mice (human liver-chimeric); conditions: for Vdss / AUC: mean ± S.E.; for AUC: n=3
structure (smiles),measurement,setting,value
CC(C)(C)[C@H](NC(=O)C(F)(F)F)C(=O)N1C[C@H]2[C@@H]([C@H]1C(=O)N[C@@H](C[C@@H]1CCNC1=O)C(=O)c1nc3c(F)cccc3s1)C2(C)C [TKB245],EC50,[1]; read-out: EC50 against UT-NCD1757-1N/ο BA.2.75,49 ± 5 nM
same,EC50,"[1]; read-out: EC50 ο BA2.75, Average",49.3 nM
same,EC50,"[1]; read-out: EC50 ο BA2.75, individual assays",55 nM and 44 nM
same,EC50,[2]; read-out: EC50 against TKYTS14631/ο BA.5,19 ± 5 nM
same,EC50,"[2]; read-out: EC50 ο BA5, Average",18.8 nM
same,EC50,"[2]; read-out: EC50 ο BA5, individual assays",16.1 nM and 24.7 nM and 15.6 nM
same,EC50,"[3]; SARS-CoV-2^WK521, read-out: EC50, A549-ACE2-TMPRSS2",2.7 ± 0.2 nM
same,EC50,"[3]; source data, listed as TKB0245, read-out: EC50, A549-AEC2-TMPRSS2, individual assays",3 nM and 2.47 nM and 2.78 nM
same,EC50,"[3]; source data, read-out: EC50, A549-AEC2-TMPRSS2, Average",2.75 nM
same,Cmax,"[4]; N = 3 male PXB-mouse, 10 mg/kg p.o.","1,901¶ ng/mL"
same,T1/2,"[4]; N = 3 male PXB-mouse, 10 mg/kg, oral (p.o.) value for TKB245",3.82¶ h
same,t1/2,"[4]; PXB-mice, 10 mg/kg i.v.",1.25 h
same,Vdss,"[4]; PXB-mice, 10 mg/kg i.v.",0.0302 ± 0.00381 L/kg
same,AUC,"[4]; PXB-mice, 10 mg/kg i.v.",10700 ± 540 ng·h/mL
same,Vdss,"[4]; PXB-mice, 10 mg/kg p.o.",0.1941 ± 0.03543 L/kg
same,AUC,"[4]; PXB-mice, 10 mg/kg p.o.",5120 ± 430 ng·h/mL
same,Plasma concentration,"[4]; PXB-mice, i.v. 10 mg/kg, 10 min, individual mice",8436.5 ng/mL
same,Plasma concentration,"[4]; PXB-mice, i.v. 10 mg/kg, 10 min, individual mice, listed as TKB0245, 10 mg/kg",8433.5 ng/mL and 10627.1 ng/mL
same,Plasma concentration,"[4]; PXB-mice, i.v. 10 mg/kg, 0.17 hr, individual mice, listed as TKB0245, 10 mg/kg",8440 ng/mL and 8430 ng/mL and 10630 ng/mL
same,Plasma concentration,"[4]; PXB-mice, i.v. 10 mg/kg, 60 min, individual mice, listed as TKB0245, 10 mg/kg",2816 ng/mL and 2507.3 ng/mL and 3230 ng/mL
same,Plasma concentration,"[4]; PXB-mice, i.v. 10 mg/kg, 1 hr, individual mice, listed as TKB0245, 10 mg/kg",2820 ng/mL and 2510 ng/mL and 3230 ng/mL
same,Plasma concentration,"[4]; PXB-mice, i.v. 10 mg/kg, 240 min, individual mice, listed as TKB0245, 10 mg/kg",47 ng/mL and 52.3 ng/mL and 95 ng/mL
same,Plasma concentration,"[4]; PXB-mice, i.v. 10 mg/kg, 4 hr, individual mice, listed as TKB0245, 10 mg/kg",0.05 µg/ml (2×) and 0.09 µg/ml
same,Plasma concentration,"[4]; PXB-mice, i.v. 10 mg/kg, 480 min, individual mice, listed as TKB0245, 10 mg/kg",10.4 ng/mL and 14.8 ng/mL and 20 ng/mL
same,Plasma concentration,"[4]; PXB-mice, i.v. 10 mg/kg, 8 hr, individual mice, listed as TKB0245, 10 mg/kg",0.01 µg/ml (2×) and 0.02 µg/ml
same,Plasma concentration,"[4]; PXB-mice, i.v. 10 mg/kg, 1440 min, individual mice, listed as TKB0245, 10 mg/kg",13.6 ng/mL and 11.6 ng/mL and 12.4 ng/mL
same,Plasma concentration,"[4]; PXB-mice, i.v. 10 mg/kg, 24 hr, individual mice",10 ng/mL
same,Plasma concentration,"[4]; PXB-mice, p.o. 10 mg/kg, 10 min, individual mice, listed as TKB0245, 10 mg/kg",914.5 ng/mL and 1553.1 ng/mL and 2872.3 ng/mL
same,Plasma concentration,"[4]; PXB-mice, p.o. 10 mg/kg, 0.17 hr, individual mice, listed as TKB0245, 10 mg/kg",910 ng/mL and 1550 ng/mL and 2870 ng/mL
same,Plasma concentration,"[4]; PXB-mice, p.o. 10 mg/kg, 60 min, individual mice, listed as TKB0245, 10 mg/kg",1278.1 ng/mL and 1343.7 ng/mL and 1794.3 ng/mL
same,Plasma concentration,"[4]; PXB-mice, p.o. 10 mg/kg, 1 hr, individual mice, listed as TKB0245, 10 mg/kg",1280 ng/mL and 1340 ng/mL and 1790 ng/mL
same,Plasma concentration,"[4]; PXB-mice, p.o. 10 mg/kg, 240 min, individual mice, listed as TKB0245, 10 mg/kg",152.9 ng/mL and 98.8 ng/mL and 128.8 ng/mL
same,Plasma concentration,"[4]; PXB-mice, p.o. 10 mg/kg, 4 hr, individual mice, listed as TKB0245, 10 mg/kg",150 ng/mL and 100 ng/mL and 130 ng/mL
same,Plasma concentration,"[4]; PXB-mice, p.o. 10 mg/kg, 480 min, individual mice, listed as TKB0245, 10 mg/kg",41.6 ng/mL and 34.4 ng/mL and 32.8 ng/mL
same,Plasma concentration,"[4]; PXB-mice, p.o. 10 mg/kg, 8 hr, individual mice, listed as TKB0245, 10 mg/kg",0.04 µg/ml and 0.03 µg/ml (2×)
same,Plasma concentration,"[4]; PXB-mice, p.o. 10 mg/kg, 1440 min, individual mice, listed as TKB0245, 10 mg/kg",26 ng/mL and 21.9 ng/mL and 27.9 ng/mL
same,Plasma concentration,"[4]; PXB-mice, p.o. 10 mg/kg, 24 hr, individual mice, listed as TKB0245, 10 mg/kg",0.03 µg/ml (2×) and 0.02 µg/ml
same,Plasma concentration,"[4]; i.v., 10 min, individual animals (3 per time point), LC/MS/MS, listed as TKB0245",8436.54 ng/mL and 8433.45 ng/mL and 10625.21 ng/mL
same,Plasma concentration,"[4]; i.v., 60 min, individual animals (3 per time point), LC/MS/MS, listed as TKB0245",2816.02 ng/mL and 2507.33 ng/mL and 3228.12 ng/mL

# Source: article PMC9958325 (Nature Communications, 2023)
